From patent US20140193827A1 (TEVA PHARMACEUTICAL INDUSTRIES, LTD., priority 2013, published 2014)

Tested on: GA-primed murine splenocytes
Assay: ANOVA-based pattern identification method
Type: cell-based, mouse
Details: DOWN IN GA AND REF ONLY
Description: We sought to identify probes matching specific patterns of expression across experimental conditions using a technique that referred to as the ANOVA-based Pattern Identification Method.
To carry out the analysis in a general manner, we computed the 6 p-values required to do pairwise comparisons of all 4 conditions for all probes using the ANOVA1 function in MATLAB. We then identified sets of probes matching the desired pattern. In the example above, probes were identified as being only affected by PG if their 6 pairwise comparison pvalues matched the following pattern (pGA-PG<0.05, pPG-reference standard<0.05, pPG-Medium<0.05, pGAMedium>0.05, pGA-reference standard>0.05, preference standard-Medium>0.05).

## glatiramer acetate [GA]
  AA536749 expression level: 8.75
  C5F3R expression level: 5.814
  CD33 expression level: 6.382
  CD63 expression level: 7.484
  CLEC4E expression level: 6.76
  CXCR4 expression level: 9.154
  GAS7 expression level: 6.685
  GPR97 expression level: 6.1434
  KLC4 expression level: 7.786
  LOC385923 expression level: 7.651
  LOC386268 expression level: 6.655
  LOC386288 expression level: 7.006
  LOC386360 expression level: 9.445
  TMEM38B expression level: 8.3
  average expression of 1100001G20RIK: 6.239
  average expression of 1110014N23RIK: 9.678
  average expression of 1200002N14RIK: 6.896
  average expression of 1300010F03R1K: 6.604
  average expression of 1300010F03RIK: 6.764
  average expression of 1700073E17RIK: 5.669
  average expression of 1810009N02RIK: 8.11
  average expression of 1810030N24RIK: 6.84
  average expression of 2010001M09RIK: 13.2
  average expression of 2310040G07RIK: 5.712
  average expression of 2310067B10RIK: 7.502
  average expression of 2310079N02RIK: 9.098
  average expression of 2510022D24RIK: 8.141
  average expression of 2610024M03RIK: 6.018
  average expression of 2610028H07RIK: 10.1
  average expression of 2810402K13RIK: 8.169
  average expression of 2810422O20RIK: 7.018
  average expression of 2900079J23RIK: 5.766
  average expression of 3110004L20RIK: 5.934
  average expression of 3110082D06RIK: 5.99
  average expression of 4930519F16RIK: 5.617
  average expression of 4930572J05RIK: 10.41
  average expression of 5031439G07RIK: 7.967
  average expression of 5330417C22RIK: 5.64
  average expression of 5830415F09RIK: 6.998
  average expression of 6230425C21RIK: 7.021
  average expression of 6430511F03: 6.247
  average expression of 6430526N21RIK: 7.232
  average expression of 6720480F11RIK: 5.641
  average expression of 6720486H14RIK: 5.584
  average expression of 9030025P20RIK: 8.593
  average expression of 9330152L17: 5.75
  average expression of A430043M19RIK: 6.108
  average expression of A630038P11RIK: 5.552
  average expression of A730017D01RIK: 6.519
  average expression of A930014P08RIK: 5.554
  average expression of ABCC4: 7.757
  average expression of ACBD4: 9.154
  average expression of ACP2: 6.811
  average expression of ACTR3B: 6.47
  average expression of ADAM11: 5.629
  average expression of AGAP1: 5.989
  average expression of ANKRD13A: 10.24
  average expression of APP: 6.949
  average expression of ARHGAP22: 6.192
  average expression of ATP6V1B2: 10.4
  average expression of AW011738: 6.2494
  average expression of B130002B06RIK: 5.7347
  average expression of B930048N13RIK: 5.895
  average expression of B930049N04RIK: 5.592
  average expression of B930097H17RIK: 5.792
  average expression of BC014795: 8.05
  average expression of BC065397: 6.46
  average expression of BC066107: 6.578
  average expression of BMP3: 5.623
  average expression of BRD2: 11.26
  average expression of C330019G07RIK: 6.738
  average expression of C430003P19RIK: 9.571
  average expression of CAGE1: 5.862
  average expression of CASP1: 11.51
  average expression of CBLC: 5.866
  average expression of CD151: 8.029
  average expression of CENTG3: 6.784
  average expression of CEPT1: 10.22
  average expression of CFB: 6.244
  average expression of CLEC4A1: 6.263
  average expression of CLEC5A: 5.873
  average expression of CNTNAP3: 5.796
  average expression of COgeneric: 8.105
  average expression of CREG1: 6.616
  average expression of CRTAC1: 5.925
  average expression of CTSL: 5.744
  average expression of D030051N19RIK: 8.287
  average expression of D030072B18RIK: 5.56
  average expression of DGKQ: 6.895
  average expression of DLG3: 7.023
  average expression of DNMT3L: 6.042
  average expression of DUSP6: 5.768
  average expression of E330023P07RIK: 5.77
  average expression of EG434402: 9.171
  average expression of EG633640: 6.136
  average expression of ELL: 9.635
  average expression of EPB4.1L3: 5.896
  average expression of EPN3: 5.711
  average expression of ERCC4: 8.15
  average expression of FA2H: 5.977
  average expression of FBXL20: 7.805
  average expression of FCMD: 6.473
  average expression of FOS: 6.875
  average expression of FRMPD1: 5.584
  average expression of GAA: 8.021
  average expression of GALGT1: 7.448
  average expression of GALNT10: 8.096
  average expression of GDPD1: 6.392
  average expression of GM498: 5.674
  average expression of GPS2: 9.303
  average expression of GSTM2: 5.945
  average expression of GTPBP1: 9.185
  average expression of HMOX1: 6.561
  average expression of HRSP12: 8.037
  average expression of IGK-V33: 9.992
  average expression of IGLC2_J00595—IG_LAMBDA—CONSTANT_2_14: 13.7
  average expression of IRAK3: 9.019
  average expression of IRF3: 7.749
  average expression of IVD: 9.212
  average expression of KCNC4: 5.832
  average expression of KRT39: 5.551
  average expression of KRTAP5-4: 5.651
  average expression of LOC193563: 5.759
  average expression of LOC238836: 13.84
  average expression of LOC243025: 6.623
  average expression of LOC327767: 5.978
